Source: patent publication US20210038577A1, “THIOREDOXIN REDUCTASE INHIBITORS FOR USE IN THE TREATMENT OF CANCER” (Cinda Pharma AB, priority 2018, published 2021)
pIC50: −log10 of the molar value.

Tests used:
MDA-MB-231 cells = test: Alamar-Blue cell viability assay; assay type: cell-based, human; settings: Homo sapiens, MDA-MB-231, 72 hrs
Description: MDA-MB-231 cells were plated 2000 cells/well in 96-well black optical plates in the presence of 10% FBS media containing 25 nM selenite. The following day cells were treated with various concentrations of compounds (0.1% DMSO final) and incubated for 72 hrs. After the incubation Alamar Blue reagent was added to each well and incubated for additional 3 hrs. Fluorescence was read ex:530 nm/em:590 nm, and percent of viability was determined using DMSO vehicle and no cell (blank) controls.

[1] = system: MDA-MB-468 (a breast cancer cell line); test: MTT cell viability assay, MDA-MB-468; assay type: cell-based; settings: Homo sapiens, MDA-MB-468, 72 hrs
Description: (§1) MDA-MB-453 (ATCC HTB-131) cells were grown in media with sodium pyruvate. MDA-MB-231 cells (ATCC HTB-26) were grown in DMEM media or L-15 supplemented with Glutamax (1×). U87-MG (ATCC HTB-14) and MDA-MB-468 (ATCC HTB-132) cells were cultured in DMEM supplemented with Glutamax (1×). NB-4 (DSMZ ACC-207) cells were cultured in RPMI 1640.
(§2) Breast cancer and glioblastoma cell lines were plated 4000 cells/well in 96-well plates in the presence of 10% FBS media. The following day cells were treated with various concentrations of the example compounds (0.1% DMSO final) and incubated for 72 hrs. After the incubation an MTT assay was performed to access cell viability. Percent of viability was determined using DMSO vehicle and no cell (blank) controls.

[2] = system: U-87 MG (a glioblastoma cell line); test: MTT cell viability assay, U-87 MG; assay type: cell-based; settings: Homo sapiens, U-87 MG, 72 hrs
Description: as §1, §2

GR from baker's yeast = target: T1, GR from baker's yeast (Saccharomyces cerevisiae, UniProt P41921); test: Glutathione reductase (GR) activity assay; assay type: biochemical; settings: Molar concentration
T1 sequence (P41921 17-483 limits assumed): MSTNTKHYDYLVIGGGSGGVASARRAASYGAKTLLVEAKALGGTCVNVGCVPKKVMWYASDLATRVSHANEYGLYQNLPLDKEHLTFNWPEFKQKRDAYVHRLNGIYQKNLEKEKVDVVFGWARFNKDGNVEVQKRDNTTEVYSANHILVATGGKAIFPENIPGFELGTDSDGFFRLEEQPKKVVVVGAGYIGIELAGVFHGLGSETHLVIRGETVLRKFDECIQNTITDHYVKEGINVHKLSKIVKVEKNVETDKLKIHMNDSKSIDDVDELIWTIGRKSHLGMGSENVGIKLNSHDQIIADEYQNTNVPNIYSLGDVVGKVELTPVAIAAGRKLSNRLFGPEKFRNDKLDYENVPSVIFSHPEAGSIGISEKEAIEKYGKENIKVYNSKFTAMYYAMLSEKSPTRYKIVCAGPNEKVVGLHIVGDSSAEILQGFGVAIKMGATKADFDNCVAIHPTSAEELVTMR
Description: GR activity was determined incubating compounds at various concentrations with GR from baker's yeast and 250 μM NADPH for 15 minutes, whereupon 10 mM oxidized glutathione (GSSG) was added to each well and NADPH consumption was followed at OD340. Activity was determined following the consumption of NADPH over time and normalized to DMSO only (Vehicle) and GR lacking (blank) controls.

Trx in MDA-MB-231 cells = test: Intracellular Trx levels by ELISA in MDA-MB-231 tumor cells; assay type: cell-based, human; settings: for intracellular Trx during treatment: 0.1 μM, 1 μM and 10 μM, over 96 hours; for total intracellular Trx at end of experiment versus untreated cell cultures: end of experiment (96 hours)
Description: The human mammary carcinoma cell line MDA-MB-231 was obtained from the American Type Culture Collection (ATCC; Manassas, Va.) and cultured in Leibovitz's L-15 medium (Thermo Fisher Scientific, USA) supplemented with 10% (v/v) heat-inactivated fetal bovine serum (Thermo Fisher Scientific, USA), 10 mM HERBS (Sigma), 25 mM sodium bicarbonate (Sigma), 1× Glutamax (Sigma), 100 IU/mL penicillin and 100 μg/ml streptomycin (Sigma) in a 5% CO2 atmosphere at 37° C. Briefly, cells were seeded at 7500 cells/well in 96-well plates. After 24 h, the cells were treated either with different concentrations of test compounds or DMSO (0.5%; vehicle control) respectively and further incubated at 37° C. in a CO2 incubator. Culture supernatants were collected at different time points, like, immediately after cell plating (−24 h), 0 h (at the time of compound addition), and 1 h, 6 h, 12 h, 24 h, 48 h, 72 h and 96 h following compound addition. Subsequently, cells were lysed from corresponding wells with 0.1% Triton X-100 and the lysates were collected. Trx levels were measured in both the culture supernatants and cell lysates by ELISA using TXN (Human) ELISA Kit [Abnova; Cat no: KA0535] following manufacturer instruction. A standard curve was prepared using different concentrations of the Trx standard (provided in the kit) with the help of GraphPad Prism software (version 5.0; La Jolla, Calif., USA). Trx concentrations for the unknown samples were calculated from the standard curve. The data were expressed as the means of three replicates.

4T1 tumors = test: Intratumoral immune cell populations in engrafted 4T1 tumors in BALB/c mice (FACS); assay type: in vivo; settings: 1 mg/kg intratumorally bid for 5 days, day 6
Description: Intratumoral immune cell populations within engrafted 4T1 cells in BALB/c mice. 4T1 cells are a murine mammary carcinoma cell line. BALB/c mice are immunocompetent. 1×10^6 4T1 tumor cells in 0% Matrigel were implanted orthotopically into the mammary fat pad. Enrollment of the mice into the treatment arms commenced when the tumors reached an average volume between 175-200 mm^3. […] Tumor volumes were measured using a digital caliper on day 1, 3, and 6 of the study. On day 6 mice were euthanized and tumors were resected for FACs analysis. Populations of murine immune cells including CD45+, CD4+, CD8+, and Tregs were analyzed. CD45+ positive cells were analyzed as the percentage of live cells. CD4+, CD8+, and Tregs cells were analyzed as percentage of CD45+ positive cells.

pIC50 (MDA-MB-231 cells)	pIC50 [1]	pIC50 [2]	pIC50 (GR from baker's yeast)	SMILES	intracellular Trx levels in comparison to untreated cells (Trx in MDA-MB-231 cells; e.g. at the 96 h time point)	CD8+ levels in tumors relative to no treatment controls (4T1 tumors)	ratio of CD8+ cells to Treg cells in tumours (4T1 tumors)	intracellular Trx during treatment (Trx in MDA-MB-231 cells)	total intracellular Trx at end of experiment versus untreated cell cultures (Trx in MDA-MB-231 cells)	intracellular levels of Trx compared with control cells (Trx in MDA-MB-231 cells; at 10 μM)	time after which intracellular Trx is reduced compared with control cells (Trx in MDA-MB-231 cells; at 10 μM) [h]
4.26	< 4.48	< 4.48	< 4.52	NC(=O)c1ccc(I)c([N+](=O)[O-])c1 [Iniparib, 4-Iodo-3-nitrobenzamide, reference compound]	reduced	significantly increased	increases	–	–	–	–
–	–	–	< 4.52	CCS(=O)(=O)c1nc(OC)ccc1[N+](=O)[O-] [OT-1129, 2-(ethylsulfonyl)-6-methoxy-3-nitropyridine]	–	–	–	appears to decline	lower	–	–
5.45	5.04	4.90	< 4.52	COc1ccc([N+](=O)[O-])c(S(=O)(=O)c2ccc(Cl)cc2)n1 [OT-1000, 2-((4-Chlorophenyl)sulfonyl)-6-methoxy-3-nitropyridine]	–	–	–	appears to decline	lower	–	–
–	–	–	< 4.52	CCCCCCCCS(=O)(=O)c1nc(OC)ccc1[N+](=O)[O-] [OT-1096, 6-methoxy-3-nitro-2-(octylsulfonyl)pyridine]	–	significantly increased	increases	–	–	reduced	24
